This is an account of results in patent US20250066351A1, “PYRAZOLO[1,5-A]PYRIDIN-2,3-YL AMIDES AS KV7 CHANNEL ACTIVATORS” (Biohaven Therapeutics Ltd., priority 2022, published 2025).

Molecules are shown by their SMILES. pEC50: −log10 of the molar value.

Assay [1] has as its target T1, hKv7.2/7.3 (Homo sapiens, UniProt O43525+O43526).
T1 construct: host or cells: HEK cells, tetracycline-inducible expression
Put plainly: Kv7.2/7.3 Thallium Flux Assay. Type of assay: cell-based. The arrangement: key to Thallium Flux Kv7.2/7.3 Activity: 3-10 μM (*); 1-3 μM (**); <1 μM (***); NC stands for Not Calculable. To be noted: EC50 of Kv7.2/Kv7.3 activation, responses normalized to retigabine 30 μM. The text has this: The Thallium Flux Assay is used as a surrogate indicator of potassium channel activity.
The experimental protocol was adapted from the FluxOR™ II Green Potassium Ion Channel Assay User Guide (Pub. No. MAN0016084, Invitrogen). Conditions were optimized for the Kv7.2/7.3 cell line.
Cell Line: The hKv7.2/7.3 cell line was obtained from Chantest (Cleveland, OH 44128) cat. #CT6147.
Cell Culture: Kv7.2/7.3 cells were maintained in a media containing DMEM/F12; 50/50 (GIBCO cat. #11330), 10% Fetal Bovine Serum (FBS) (GIBCO cat. #26140), 100 units/mL Penicillin-Streptomycin (GIBCO cat. #15140), 0.005 mg/ml Blasticidin (SIGMA 15205), 0.5 mg/mL Geneticin (GIBCO cat. #10131), and 0.1 mg/mL Zeocin (GIBCO cat. #R25001). One day prior to experimentation, cells were plated in 96 well clear bottom plates (Corning cat. #353219) in a media without Blasticidin, Geneticin, or Zeocin. Channel expression was induced by adding tetracycline (Bioline cat. #BIO87030) at a final concentration of 10 ng/mL.
Compound Plates: The test compound is diluted in a mixture of 0.1% DMSO/extracellular solution with an eight-point concentration range from 0.014 μM to 30 μM. Serial dilutions were made on a Biomek NXP (BECKMAN COULTER).
Measurement and data analysis: A plate reader (Enspire, Perkin Elmer) is used to characterize the ion-channel modulating properties of novel compounds using an excitation wavelength of 475 nm and an emission wavelength of 530 nm. After a 15 sec baseline measurement, the stimulus buffer containing thallium and potassium is injected. A final endpoint measure is taken after 90 sec. Responses are normalized to positive control (retigabine, 30 μM max). Mean normalized responses at each concentration tested are fit to the standard Hill equation to generate an EC50 and maximal response.

Assay [2] concerns the target T1, hKv7.2/7.3. Briefly: Kv7.2/7.3 Activation Assay, QPatch planar patch-clamp single concentration screen. The assay is classed as cell-based. To be noted: increase in current over baseline, Kv7.2/Kv7.3 co-expressing HEK cells, compound concentration 3 μM, steady-state current at end of 2 s pulse to −30 mV. The gist of the method:
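Tetracycline-induced HEK cells expressing hKv7.2/7.3, recorded 24 h post-induction by automated whole-cell patch clamp (−80 mV hold, 2 s step to −30 mV). Compound tested at 3 μM (0.1% DMSO); fold increase in steady-state current at end of the −30 mV step over baseline.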
In general terms: The patch-clamp technique gives a direct electrical read-out from membranes.

Consider `N#Cc1ccn2nc(NC(=O)C[C@@H]3CC(F)(F)C3(F)F)c(C3CCC3)c2c1` [Example 96, (R)-N-(5-cyano-3-cyclobutylpyrazolo[1,5-a]pyridin-2-yl)-2-(2,2,3,3-tetrafluorocyclobutyl) acetamide], for which the “Thallium Flux Kv7.2/7.3 Activity” value in assay [1] is listed as “NC”.
Regarding `CC(C)(O)c1ccn2nc(NC(=O)C[C@@H]3CC(F)(F)C3(F)F)c(C3CCC3)c2c1` [Example 98, (R)-N-(3-cyclobutyl-5-(2-hydroxypropan-2-yl)pyrazolo[1,5-a]pyridin-2-yl)-2-(2,2,3,3-tetrafluorocyclobutyl) acetamide], the pEC50 (commonly the negative decadic logarithm of the EC50, by convention in mol/L) in assay [1] was more than 6.00.
As for `CC(C)(C)CC(=O)Nc1nn2ccc(C#N)cc2c1C(C)(C)C` [Example 88, N-(3-(tert-butyl)-5-cyanopyrazolo[1,5-a]pyridin-2-yl)-3,3-dimethylbutanamide], in assay [1], the “Thallium Flux Kv7.2/7.3 Activity” value is recorded as “NC”.
Turning to `CC(C)(C)c1c(NC(=O)CC(C)(C)C(F)(F)F)nn2ccc(C#N)cc12` [Example 89, N-(3-(tert-butyl)-5-cyanopyrazolo[1,5-a]pyridin-2-yl)-4,4,4-trifluoro-3,3-dimethylbutanamide], the “Thallium Flux Kv7.2/7.3 Activity” value in assay [1] is “NC”.
As to `CC(C)(O)CC(=O)Nc1nn2ccc(C(F)(F)F)cc2c1-c1ccc(F)cc1` [Example 14, N-(3-(4-fluorophenyl)-5-(trifluoromethyl)pyrazolo [1,5-a]pyridin-2-yl)-3-hydroxy-3-methylbutanamide], in assay [2], the “QPatch Kv7.2/7.3 Activity” value is listed as “+ (2.0-3.99 (+))”. Besides, the pEC50 in assay [1] was more than 6.00.
For `CC(C)(O)c1ccn2nc(NC(=O)C[C@H]3CC(F)(F)C3(F)F)c(C3CCC3)c2c1` [Example 95, (S)-N-(3-cyclobutyl-5-(2-hydroxypropan-2-yl)pyrazolo [1,5-a]pyridin-2-yl)-2-(2,2,3,3-tetrafluorocyclobutyl) acetamide], the “QPatch Kv7.2/7.3 Activity” value in assay [2] is reported as “+ (2.0-3.99 (+))”. In addition, the pEC50 in assay [1] is more than 6.00.
With `N#Cc1ccn2nc(NC(=O)C[C@H]3CC(F)(F)C3(F)F)c(C3CCC3)c2c1` [Example 94, (S)-N-(5-cyano-3-cyclobutylpyrazolo[1,5-a]pyridin-2-yl)-2-(2,2,3,3-tetrafluorocyclobutyl) acetamide], in assay [1], the pEC50 is more than 6.00.
As to `CC(C)(C)CC(=O)Nc1nn2ccccc2c1C#N` [Example 91, N-(3-cyanopyrazolo [1,5-a]pyridin-2-yl)-3,3-dimethylbutanamide], the “Thallium Flux Kv7.2/7.3 Activity” value in assay [1] was “NC”.
Consider `CC(C)(C)CC(=O)Nc1nn2ccc(C(C)(C)O)cc2c1C1CCC1` [Example 57, N-(3-cyclobutyl-5-(2-hydroxypropan-2-yl)pyrazolo[1,5-a]pyridin-2-yl)-3,3-dimethylbutanamide], for which the “QPatch Kv7.2/7.3 Activity” value in assay [2] was “++ (4.0-5.99 (++))”. The pEC50 in assay [1] was more than 6.00.
As for `CC(C)(C)CC(=O)Nc1nn2ccc(C#N)cc2c1C1CCC1` [Example 3, N-(5-cyano-3-cyclobutylpyrazolo[1,5-a]pyridin-2-yl)-3,3-dimethylbutanamide], the “QPatch Kv7.2/7.3 Activity” value in assay [2] was “+ (2.0-3.99 (+))”. In assay [1], the pEC50 was more than 6.00.
On to `CC(C)(C)CC(=O)Nc1nn2ccccc2c1C(C)(C)O` [Example 93, N-(3-(2-hydroxypropan-2-yl)pyrazolo[1,5-a]pyridin-2-yl)-3,3-dimethylbutanamide], for which the pEC50 in assay [1] is more than 6.00.
Consider `N#Cc1ccn2nc(NC(=O)CC3(C(F)(F)F)CC3)c(C3CCC3)c2c1` [Example 97, N-(5-cyano-3-cyclobutylpyrazolo[1,5-a]pyridin-2-yl)-2-(1-(trifluoromethyl)cyclopropyl)acetamide], for which the “Thallium Flux Kv7.2/7.3 Activity” value in assay [1] is reported as “NC”.
Regarding `C[C@](O)(CC(=O)Nc1nn2ccc(C#N)cc2c1C1CCC1)c1ccccn1` [Example 43, (S)-N-(5-cyano-3-cyclobutylpyrazolo[1,5-a]pyridin-2-yl)-3-hydroxy-3-(pyridin-2-yl)butanamide], in assay [2], the “QPatch Kv7.2/7.3 Activity” value is given as “+ (2.0-3.99 (+))”.
Turning to `CC(C)(C)c1c(NC(=O)C[C@@H]2CC(F)(F)C2(F)F)nn2ccc(C#N)cc12` [Example 90, (R)-N-(3-(tert-butyl)-5-cyanopyrazolo[1,5-a]pyridin-2-yl)-2-(2,2,3,3-tetrafluorocyclobutyl) acetamide], the “Thallium Flux Kv7.2/7.3 Activity” value in assay [1] was “NC”.
With `CC(C)(O)CC(=O)Nc1nn2c(Br)cccc2c1C1CCC1` [Example 19, N-(7-bromo-3-cyclobutylpyrazolo[1,5-a]pyridin-2-yl)-3-hydroxy-3-methylbutanamide], the “QPatch Kv7.2/7.3 Activity” value in assay [2] was “+ (2.0-3.99 (+))”.
As to `CC(C)[C@H](C)C(=O)Nc1nn2ccc(C#N)cc2c1C1CCC1` [Example 8, (S)-N-(5-cyano-3-cyclobutylpyrazolo[1,5-a]pyridin-2-yl)-2,3-dimethylbutanamide], the “QPatch Kv7.2/7.3 Activity” value in assay [2] is reported as “+ (2.0-3.99 (+))”.
Same read-out and setting: the result for `CC(C)(O)CC(=O)Nc1nn2ccc(Cl)cc2c1-c1ccc(F)cc1` [Example 58, N-(5-chloro-3-(4-fluorophenyl)pyrazolo [1,5-a]pyridin-2-yl)-3-hydroxy-3-methylbutanamide] reads “+ (2.0-3.99 (+))”.
As for `CCOC(=O)c1c(NC(=O)CC(C)(C)C)nn2ccccc12` [Example 92, ethyl 2-(3,3-dimethylbutanamido) pyrazolo[1,5-a]pyridine-3-carboxylate], the “Thallium Flux Kv7.2/7.3 Activity” value in assay [1] is listed as “NC”.
